Assay results published in patent US20240199587A1, “HETEROCYCLIC COMPOUNDS” (Hoffmann-La Roche Inc., priority 2021, published 2024).
pIC50: −log10 of the molar value.

target: T1, MAGL (Homo sapiens, UniProt Q99685); test: 2-AG assay (MAGL inhibitory activity, hydrolysis of 2-arachidonoylglycerol to arachidonic acid followed by mass spectrometry); assay type: biochemical; conditions: 8 μM 2-arachidonoylglycerol, 15 min pre-incubation, 30 min incubation at RT, RapidFire MS readout
T1 sequence (Q99685 1-303): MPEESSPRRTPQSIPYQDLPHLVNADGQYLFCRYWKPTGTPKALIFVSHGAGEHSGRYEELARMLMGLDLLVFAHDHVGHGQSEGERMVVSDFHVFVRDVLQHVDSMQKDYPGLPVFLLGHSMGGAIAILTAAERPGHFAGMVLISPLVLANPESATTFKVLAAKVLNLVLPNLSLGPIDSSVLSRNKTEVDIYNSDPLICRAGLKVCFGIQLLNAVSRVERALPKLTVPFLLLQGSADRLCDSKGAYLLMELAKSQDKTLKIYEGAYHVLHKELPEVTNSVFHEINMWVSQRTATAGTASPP
Method in brief: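 Human MAGL ([…] final) pre-incubated 15 min at RT with compound in 50 mM TRIS, 1 mM EDTA, 0.01% Tween-20, 2.5% DMSO; 8 μM 2-AG then added for 30 min at RT. Acetonitrile quench with d8-arachidonic acid; arachidonic acid measured by RapidFire SPE–MS/MS, activity from arachidonic acid/d8 ratio.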

Row | SMILES | pIC50
1 | CS(=O)(=O)c1cccc(CC2CC3(C2)CN(C(=O)N2CC4(CC(n5cnc(C(F)(F)F)n5)C4)C2)C3)c1 [Example 456, [6-[(3-methylsulfonylphenyl)methyl]-2-azaspiro[3.3]heptan-2-yl]-[6-[3-(trifluoromethyl)-1,2,4-triazol-1-yl]-2-azaspiro[3.3]heptan-2-yl]methanone] | 8.94
2 | CS(=O)(=O)c1cncc(CC2CC3(C2)CN(C(=O)N2CC4(CC(n5cnc(C(F)(F)F)n5)C4)C2)C3)c1 [Example 457, [6-[(5-methylsulfonyl-3-pyridyl)methyl]-2-azaspiro[3.3]heptan-2-yl]-[6-[3-(trifluoromethyl)-1,2,4-triazol-1-yl]-2-azaspiro[3.3]heptan-2-yl]methanone] | 7.96
3 | CS(=O)(=O)c1ccc(CC2CC3(C2)CN(C(=O)N2CC4(CC(n5cnc(C(F)(F)F)n5)C4)C2)C3)c(F)c1 [Example 459, [6-[(2-fluoro-4-methylsulfonyl-phenyl)methyl]-2-azaspiro[3.3]heptan-2-yl]-[6-[3-(trifluoromethyl)-1,2,4-triazol-1-yl]-2-azaspiro[3.3]heptan-2-yl]methanone] | 9.52
4 | CS(=O)(=O)c1cc(F)cc(CC2CC3(C2)CN(C(=O)N2CC4(CC(n5cnc(C(F)(F)F)n5)C4)C2)C3)c1 [Example 460, [6-[(3-fluoro-5-methylsulfonyl-phenyl)methyl]-2-azaspiro[3.3]heptan-2-yl]-[6-[3-(trifluoromethyl)-1,2,4-triazol-1-yl]-2-azaspiro[3.3]heptan-2-yl]methanone] | 9.03
5 | CS(=N)(=O)c1cccc(CC2CC3(C2)CN(C(=O)N2CC4(CC(n5cnc(C6CC6)n5)C4)C2)C3)c1 (stereo not shown) [Example 461, [6-(3-cyclopropyl-1,2,4-triazol-1-yl)-2-azaspiro[3.3]heptan-2-yl]-[6-[[3-(methylsulfonimidoyl)phenyl]methyl]-2-azaspiro[3.3]heptan-2-yl]methanone] | 8.75
6 | O=C(N1CC(c2ccc(-c3n[nH]c(C4CC4)n3)cc2)C1)N1CC2(CC(n3cnc(C4CC4)n3)C2)C1 [Example 467, [6-(3-cyclopropyl-1,2,4-triazol-1-yl)-2-azaspiro[3.3]heptan-2-yl]-[3-[4-(5-cyclopropyl-1H-1,2,4-triazol-3-yl)phenyl]azetidin-1-yl]methanone] | 8.63
7 | CS(=O)(=O)c1cc(F)cc(CC2CC3(C2)CN(C(=O)N2CC4(CC(n5cnc(C6CC6)n5)C4)C2)C3)c1 [Example 468, [6-(3-cyclopropyl-1,2,4-triazol-1-yl)-2-azaspiro[3.3]heptan-2-yl]-[6-[(3-fluoro-5-methylsulfonyl-phenyl)methyl]-2-azaspiro[3.3]heptan-2-yl]methanone] | 9.82
8 | O=C(N1CC(c2ccc(-c3n[nH]c(C4CCC4)n3)cc2)C1)N1CC2(CC(n3cnc(C4CC4)n3)C2)C1 [Example 471, [3-[4-(5-cyclobutyl-1H-1,2,4-triazol-3-yl)phenyl]azetidin-1-yl]-[6-(3-cyclopropyl-1,2,4-triazol-1-yl)-2-azaspiro[3.3]heptan-2-yl]methanone] | 9.16

The remaining lines, values ahead:

Row | pIC50 | SMILES
9 | 7.71 | CS(=O)(=O)c1ccc(CC2CC3(C2)CN(C(=O)N2CC4(CC(n5cnc(C(F)(F)F)n5)C4)C2)C3)nc1 [Example 458, [6-[(5-methylsulfonyl-2-pyridyl)methyl]-2-azaspiro[3.3]heptan-2-yl]-[6-[3-(trifluoromethyl)-1,2,4-triazol-1-yl]-2-azaspiro[3.3]heptan-2-yl]methanone]
10 | 8.53 | CS(=N)(=O)c1ccc(CC2CC3(C2)CN(C(=O)N2CC4(CC(n5cnc(C6CC6)n5)C4)C2)C3)cc1 (stereo not shown) [Example 462, [6-(3-cyclopropyl-1,2,4-triazol-1-yl)-2-azaspiro[3.3]heptan-2-yl]-[6-[[4-(methylsulfonimidoyl)phenyl]methyl]-2-azaspiro[3.3]heptan-2-yl]methanone]
11 | 8.62 | O=C(N1CC2(CCN(Cc3ccc(C(F)(F)F)cn3)CC2)C1)N1CC2(CC(n3cnc(C4CC4)n3)C2)C1 [Example 463, [6-(3-cyclopropyl-1,2,4-triazol-1-yl)-2-azaspiro[3.3]heptan-2-yl]-[7-[[5-(trifluoromethyl)-2-pyridyl]methyl]-2,7-diazaspiro[3.5]nonan-2-yl]methanone]
12 | 8.30 | O=C(N1CC2(CCN(Cc3ccc(C(F)(F)F)nc3)CC2)C1)N1CC2(CC(n3cnc(C4CC4)n3)C2)C1 [Example 464, [6-(3-cyclopropyl-1,2,4-triazol-1-yl)-2-azaspiro[3.3]heptan-2-yl]-[7-[[6-(trifluoromethyl)-3-pyridyl]methyl]-2,7-diazaspiro[3.5]nonan-2-yl]methanone]
13 | 8.50 | O=C(N1CC2(CC(CNC3(C(F)(F)F)COC3)C2)C1)N1CC2(CC(n3cnc(C4CC4)n3)C2)C1 [Example 465, [6-(3-cyclopropyl-1,2,4-triazol-1-yl)-2-azaspiro[3.3]heptan-2-yl]-[6-[[[3-(trifluoromethyl)oxetan-3-yl]amino]methyl]-2-azaspiro[3.3]heptan-2-yl]methanone]
14 | 8.93 | O=C(N1CC(c2ccc(-c3nnc(C4(C(F)(F)F)CC4)[nH]3)cc2)C1)N1CC2(CC(n3cnc(C4CC4)n3)C2)C1 [Example 466, [6-(3-cyclopropyl-1,2,4-triazol-1-yl)-2-azaspiro[3.3]heptan-2-yl]-[3-[4-[5-[1-(trifluoromethyl)cyclopropyl]-4H-1,2,4-triazol-3-yl]phenyl]azetidin-1-yl]methanone]
15 | 9.32 | O=C(N1CC2(CC(n3cnc(C4CC4)n3)C2)C1)N1CC2(CN(Cc3ccc(S(=O)(=O)C(F)(F)F)cc3)C2)C1 [Example 469, [6-(3-cyclopropyl-1,2,4-triazol-1-yl)-2-azaspiro[3.3]heptan-2-yl]-[6-[[4-(trifluoromethylsulfonyl)phenyl]methyl]-2,6-diazaspiro[3.3]heptan-2-yl]methanone]
16 | 9.38 | O=C(N1CC(c2cnc(NCC3(C(F)(F)F)CC3)cn2)C1)N1CC2(CC(n3cnc(C4CC4)n3)C2)C1 [Example 470, [6-(3-cyclopropyl-1,2,4-triazol-1-yl)-2-azaspiro[3.3]heptan-2-yl]-[3-[5-[[1-(trifluoromethyl)cyclopropyl]methylamino]pyrazin-2-yl]azetidin-1-yl]methanone]
17 | 7.34 | O=C(N1CC2(CC(n3cnc(C4CC4)n3)C2)C1)N1CC2(CN(Cc3ccc(C(F)(F)F)nn3)C2)C1 [Example 472, [6-(3-cyclopropyl-1,2,4-triazol-1-yl)-2-azaspiro[3.3]heptan-2-yl]-[6-[[6-(trifluoromethyl)pyridazin-3-yl]methyl]-2,6-diazaspiro[3.3]heptan-2-yl]methanone]
18 | 7.94 | O=C(N1CC2(CC(n3cnc(C4CC4)n3)C2)C1)N1CC2(CN(Cc3cnc(C(F)(F)F)cn3)C2)C1 [Example 473, [6-(3-cyclopropyl-1,2,4-triazol-1-yl)-2-azaspiro[3.3]heptan-2-yl]-[6-[[5-(trifluoromethyl)pyrazin-2-yl]methyl]-2,6-diazaspiro[3.3]heptan-2-yl]methanone]
19 | 7.61 | O=C(N1CC2(CC(n3cnc(C4CC4)n3)C2)C1)N1CC2(C1)CN(S(=O)(=O)C13CC(C(F)(F)F)(C1)C3)C2 [Example 474, [6-(3-cyclopropyl-1,2,4-triazol-1-yl)-2-azaspiro[3.3]heptan-2-yl]-[2-[[3-(trifluoromethyl)-1-bicyclo[1.1.1]pentanyl]sulfonyl]-2,6-diazaspiro[3.3]heptan-6-yl]methanone]
